≈ marks a conversion by molar mass, not a printed value. Where “and” joins values, the source holds several entries; their conditions need not be identical. Equal values may be shown once. Values belong to the compound of their own block, whether it stands above or below them.
What was measured:
Experiment in all cases: ≥ marks a high value that may be exact or a test limit, other limits are often not marked, values filed in µg/mL are converted to µM
[1] = tested on: Salmonella enterica subsp. enterica serovar Typhimurium ATCC 14028
[2] = tested on: Bacillus subtilis KCTC 1021
[3] = tested on: Micrococcus luteus ATCC 4698
Pseudomonas putida = tested on: Pseudomonas putida
[4] = tested on: Shigella dysenteriae ATCC 9752
[5] = tested on: Pseudomonas aeruginosa ATCC 9027
[6] = tested on: Proteus mirabilis ATCC 25933
Escherichia coli = tested on: Escherichia coli
[7] = tested on: Staphylococcus epidermidis ATCC 12228
Candida albicans = tested on: Candida albicans
Saccharomyces cerevisiae = tested on: Saccharomyces cerevisiae
[8] = tested on: Klebsiella pneumoniae ATCC 10031
Serratia marcescens = tested on: Serratia marcescens
[9] = tested on: Saccharomyces cerevisiae SZMC 0644
[10] = tested on: Candida parapsilosis CBS 604
Candida krusei CBS 573 = tested on: Candida krusei CBS 573
[11] = tested on: Candida albicans ATCC 10231
[12] = tested on: Staphylococcus aureus ATCC 25923
[13] = tested on: Aggregatibacter actinomycetemcomitans ATCC 29522
[14] = tested on: Escherichia coli ATCC 25922
[15] = tested on: Streptococcus sanguinis ATCC 10556
[16] = tested on: Enterococcus faecalis ATCC 19433
[17] = tested on: Enterobacter cloacae ATCC 49141
[18] = tested on: Streptococcus pyogenes ATCC 49399
Bacillus megaterium Bm11 = tested on: Bacillus megaterium Bm11
[19] = tested on: Pseudomonas aeruginosa ATCC 27853
[20] = tested on: Staphylococcus aureus ATCC 6538P
[21] = tested on: Klebsiella aerogenes ATCC 35029
Staphylococcus aureus = tested on: Staphylococcus aureus
Aeromonas hydrophila = tested on: Aeromonas hydrophila
Vibrio parahaemolyticus = tested on: Vibrio parahaemolyticus
Streptococcus pyogenes = tested on: Streptococcus pyogenes
Vibrio fluvialis = tested on: Vibrio fluvialis
Vibrio alginolyticus = tested on: Vibrio alginolyticus
[22] = tested on: Fusarium solani MTCC 10158
Micrococcus luteus A270 = tested on: Micrococcus luteus A270
Candida albicans MDM8 = tested on: Candida albicans MDM8
Escherichia coli SBS 363 = tested on: Escherichia coli SBS 363

MIC [1]: 77.8 µM (≈ 200 µg/mL)
MIC [2]: 3.89 µM (≈ 9.99 µg/mL)
MIC [3]: 0.972 µM (≈ 2.5 µg/mL)
MIC (Pseudomonas putida): 19.4 µM (≈ 50 µg/mL)
MIC [4]: 19.4 µM (≈ 50 µg/mL)
MIC [5]: 38.9 µM (≈ 99.9 µg/mL)
MIC [6]: ≥ 77.8 µM
MIC (Escherichia coli): 19.4 µM (≈ 50 µg/mL)
MIC [7]: 3.89 µM (≈ 9.99 µg/mL)
MIC (Candida albicans): 19.4 µM (≈ 50 µg/mL)
MIC (Saccharomyces cerevisiae): 19.4 µM (≈ 50 µg/mL)
MIC [8]: 19.4 µM (≈ 50 µg/mL)
MIC (Serratia marcescens): ≥ 77.8 µM
SMILES: CC[C@H](C)[C@@H]1NC(=O)[C@H](C)NC(=O)[C@@H](NC(=O)[C@H](Cc2ccccc2)NC(=O)[C@@H](NC(=O)[C@H](CO)NC(=O)[C@@H]2CCCN2C(=O)[C@H](CC(C)C)NC(=O)[C@@H](NC(=O)[C@H](CCCCN)NC(=O)[C@H](CO)NC(=O)[C@H](C)NC(=O)[C@@H](NC(=O)[C@H](CCCCN)NC(=O)[C@H](Cc2ccccc2)NC(=O)[C@H](CC(C)C)NC(=O)[C@H](C)NC(=O)CNC(=O)[C@H](CC(C)C)NC(=O)[C@@H](N)Cc2ccccc2)C(C)C)C(C)C)C(C)C)CSSC[C@@H](C(=O)O)NC(=O)[C@H](CCCCN)NC(=O)[C@H](CCCCN)NC(=O)[C@H]([C@@H](C)O)NC1=O [FLGALFKVASKVLPSVFCAITKKC]

MIC [9]: 20.3 µM (≈ 49.9 µg/mL)
MIC [10]: 20.3 µM (≈ 49.9 µg/mL)
MIC (Candida krusei CBS 573): 20.3 µM (≈ 49.9 µg/mL)
MIC [11]: 20.3 µM (≈ 49.9 µg/mL)
SMILES: CC[C@H](C)[C@H](N)C(=O)N[C@@H](C)C(=O)NCC(=O)N[C@@H](C)C(=O)N[C@@H](Cc1cnc[nH]1)C(=O)N[C@@H](CCCCN)C(=O)N[C@H]1CSSC[C@@H](C(=O)N[C@@H](CC(N)=O)C(=O)N[C@@H](CO)C(=O)N2CCC[C@H]2C(=O)N[C@@H](CC(N)=O)C(=O)O)NC(=O)[C@@H]2CSSC[C@H](NC(=O)[C@@H]3CCCN3C(=O)[C@H](CCCCN)NC1=O)C(=O)N[C@@H](Cc1ccc(O)cc1)C(=O)NCC(=O)N[C@@H](Cc1ccc(O)cc1)C(=O)N[C@@H](CCCCN)C(=O)N[C@@H]([C@@H](C)O)C(=O)N[C@@H](CC(N)=O)C(=O)N[C@@H](CO)C(=O)N2 [IAGAHKCKPCYGYKTNSCCNSPN]

MIC [12]: 2.85 µM (≈ 7.8 µg/mL)
MIC [13]: 11.4 µM (≈ 31.2 µg/mL)
MIC [14]: 0.71 µM (≈ 1.94 µg/mL)
MIC [15]: 5.7 µM (≈ 15.6 µg/mL)
SMILES: CC[C@H](C)[C@H](NC(C)=O)C(=O)N[C@@H](Cc1c[nH]c2ccccc12)C(=O)N[C@@H](CC(C)C)C(=O)N[C@H](C(=O)N[C@@H](C)C(=O)N[C@@H](CC(C)C)C(=O)N[C@@H](CCCCN)C(=O)N[C@@H](Cc1ccccc1)C(=O)N[C@@H](CC(C)C)C(=O)NCC(=O)N[C@@H](CCCCN)C(=O)N[C@@H](CC(N)=O)C(=O)N[C@@H](CC(C)C)C(=O)NCC(=O)N[C@@H](CCCCN)C(=O)N[C@@H](CC(C)C)C(=O)N[C@@H](C)C(=O)N[C@@H](CCCCN)C(=O)N[C@@H](CCC(N)=O)C(=O)N[C@@H](CCC(N)=O)C(=O)N[C@@H](CC(C)C)C(=O)N[C@@H](C)C(=O)N[C@@H](CCCCN)C(=O)N[C@@H](CC(C)C)C(N)=O)[C@@H](C)O [IWLTALKFLGKNLGKLAKQQLAKL]

MIC [16]: ≥ 80 µM
MIC [17]: ≥ 80 µM
MIC [18]: 2.5 µM (≈ 3.25 µg/mL)
MIC (Bacillus megaterium Bm11): 2.5 µM (≈ 3.25 µg/mL)
MIC [19]: 20 µM (≈ 26 µg/mL)
MIC [20]: ≥ 80 µM
MIC [14]: 3.54 µM (≈ 4.59 µg/mL)
MIC [21]: ≥ 80 µM
SMILES: CC[C@H](C)[C@H](NC(=O)[C@H](CCCN=C(N)N)NC(=O)[C@@H](NC(=O)[C@H](CCCN=C(N)N)NC(=O)[C@H](Cc1c[nH]c2ccccc12)NC(=O)[C@H](CCCN=C(N)N)NC(=O)[C@H](Cc1ccccc1)NC(=O)[C@H](CCCN=C(N)N)NC(=O)[C@@H]1CCCN1)[C@@H](C)CC)C(N)=O [PRFRWRIRI]

MIC (Staphylococcus aureus): > 145 µM
MIC (Aeromonas hydrophila): 18.1 µM (≈ 31.3 µg/mL)
MIC (Streptococcus pyogenes): ≥ 72.4 µM
MIC (Vibrio fluvialis): ≥ 72.4 µM
MIC (Vibrio alginolyticus): 18.1 µM (≈ 31.3 µg/mL)
MIC (Escherichia coli): > 145 µM
SMILES: CC[C@H](C)[C@H](NC(=O)[C@H](C)NC(=O)[C@H](CC(=O)O)NC(=O)[C@H](CCCN=C(N)N)NC(=O)[C@@H](NC(=O)[C@@H](N)CCCN=C(N)N)[C@@H](C)CC)C(=O)N[C@@H](C)C(=O)N[C@@H](Cc1cnc[nH]1)C(=O)NCC(=O)N[C@@H](Cc1ccc(O)cc1)C(=O)N[C@H](C(=O)N[C@H](C(=O)N[C@@H](CC(=O)O)C(=O)N[C@@H](CCCCN)C(=O)N[C@H](C(=O)O)C(C)C)C(C)C)[C@@H](C)CC [RIRDAIAHGYIVDKV]
MIC (Vibrio parahaemolyticus): ≥ 145 µM

MIC [22]: 7.07 µM and 21.2 µM
SMILES: NCCCC[C@H](NC(=O)[C@H](CCCCN)NC(=O)[C@H](CCCN=C(N)N)NC(=O)[C@H](CCCN=C(N)N)NC(=O)[C@H](CCCN=C(N)N)NC(=O)[C@H](CCCN=C(N)N)NC(=O)[C@H](CCC(N)=O)NC(=O)[C@H](CCCN=C(N)N)NC(=O)[C@H](CCCN=C(N)N)NC(=O)[C@H](CCCCN)NC(=O)[C@H](CCCCN)NC(=O)[C@@H](N)CCCN=C(N)N)C(=O)N[C@@H](CCCN=C(N)N)C(=O)N[C@@H](CCCN=C(N)N)C(=O)N[C@@H](CCC(N)=O)C(=O)N[C@@H](CCCN=C(N)N)C(=O)N[C@@H](CCCN=C(N)N)C(=O)N[C@@H](CCCN=C(N)N)C(=O)O [RKKRRQRRRRKKRRQRRR]

MIC (Micrococcus luteus A270): 1.56 µM (≈ 1.97 µg/mL)
MIC (Candida albicans MDM8): 1.56 µM (≈ 1.97 µg/mL)
MIC (Escherichia coli SBS 363): 3.12 µM (≈ 3.95 µg/mL)
SMILES: CC[C@H](C)[C@H](NC(=O)[C@H](CC(C)C)NC(=O)[C@@H]1CCCN1C(=O)[C@H](CC(C)C)NC(=O)[C@H](CC(C)C)NC(=O)[C@@H](N)CO)C(=O)N[C@@H](CCCN=C(N)N)C(=O)N[C@@H](CCCCN)C(=O)N[C@@H](CC(C)C)C(=O)N[C@H](C(=O)N[C@H](C(N)=O)[C@@H](C)O)[C@@H](C)CC [SLLPLIRKLIT]

Source: DBAASP
